Experimental data published in US20200397795A1, “PROPHYLACTIC TREATMENT OF VENOUS THROMBOEMBOLISM” (JANSSEN PHARMACEUTICALS, INC., priority 2019, published 2020).

System: symptomatic VTE and VTE-related death in high-risk, medically ill subjects
Assay: MARINER (Study 2): efficacy of rivaroxaban vs placebo for 45 days post-hospital discharge
Assay type: in vivo, human
Parameters: Primary efficacy outcome, absolute difference vs placebo / Primary efficacy outcome, relative risk reduction vs placebo: concentration or dose not given beside the values
Conditions: for Primary efficacy outcome (symptomatic VTE and VTE-related death), n/N (%): CEC adjudicated
From the text: The primary objective of Study 2 (MARINER) was to assess the efficacy and safety of rivaroxaban, compared with placebo in the prevention of symptomatic venous thromboembolism (VTE; lower extremity deep vein thrombosis [DVT] and non-fatal pulmonary embolism [PE]) and VTE-related death (death due to PE or death in which PE could not be ruled out as the cause) post-hospital discharge in high-risk, medically ill subjects.
This was a multicenter, prospective, randomized, double-blind, placebo-controlled, event-driven study conducted in multiple geographic regions (North America, South America, Eastern Europe, Western Europe, and Other locations) that evaluated rivaroxaban, compared with placebo, in the prevention of symptomatic VTE events and VTE-related deaths for a period of 45 days post-hospital discharge in high-risk, medically ill subjects. The study consisted of a screening phase, a 45-day double-blind treatment phase, and a 30-day safety follow-up period (which was also the end of study [EOS]). The total duration for a subject who completed the study (including the safety follow-up period) after randomization was 75 (±5) days.
The index hospitalization was at least 3 and no more than 10 consecutive days in duration. […] Subjects received thromboprophylaxis during the index hospitalization with low molecular weight heparin (LMWH) or unfractionated heparin (UFH).
Randomization occurred on the same day or the day after the subject left the hospital, and occurred at the hospital, clinic, or other discharge destination. Eligible subjects were to be randomly assigned (1:1) by strata (by creatinine clearance [CrCl] level [≥30-<50 mL/min versus ≥50 mL/min] and by country) to receive either rivaroxaban or placebo. Subjects with a baseline CrCl of ≥50 mL/min were to receive rivaroxaban 10 mg once daily (QD) or placebo QD. A dose adjustment to rivaroxaban 7.5 mg QD was to be implemented for subjects with a baseline CrCl of ≥30 to <50 mL/min. Study drug started at randomization (Day 1) and continued until Day 45 (inclusive). The subject was assessed 30 days later for safety follow-up.
Criteria for Evaluation: This was a clinical outcomes study. The primary efficacy outcome was the composite of all symptomatic VTE events and VTE-related death from randomization up to Day 45. Secondary efficacy outcomes were: VTE-related death; symptomatic VTE; the composite of symptomatic VTE and ACM; the composite of symptomatic VTE, MI, non-hemorrhagic stroke and CV death; and ACM.
The primary and secondary efficacy outcomes were analyzed based on the time from randomization to the first occurrence in the ITT analysis set and Up-to-Day 45 analysis phase. […] A Cox proportional hazards model, stratified by subjects with CrCl ≥30 to <50 mL/min versus subjects with CrCl ≥50 mL/min, with the treatment (as randomized) as the only covariate was used for each analysis. A 2-sided p-value was reported, and if it was less than the 2-sided alpha of 0.05, then superiority of the study drug was to be declared when the observed survival functions favored rivaroxaban. The point estimate and corresponding 95% confidence interval (CI) for the hazard ratio (HR; rivaroxaban to placebo) were provided based on the Cox proportional hazards model. To control the family-wise type I error rate at alpha of 0.05 (2-sided) in testing for efficacy outcomes, if superiority of rivaroxaban over placebo for the primary efficacy outcome was established, superiority of rivaroxaban over placebo on secondary outcomes was tested sequentially using a closed testing procedure in a hierarchical order, each at alpha of 0.05 (2-sided).

[1] = Up-to-Day 45, ITT, listed as rivaroxaban
[2] = as reported by the investigator

With O=C(NC[C@H]1CN(c2ccc(N3CCOCC3=O)cc2)C(=O)O1)c1ccc(Cl)s1 [Rivaroxaban, 5-chloro-N-({(5S)-2-oxo-3-[4-(3-oxo-4-morpholinyl)phenyl]-1,3,oxazolidin-5-yl}methyl)-2-thiophenecarboxamide] the “Primary efficacy outcome, HR vs placebo” value (7.5 mg dose stratum) was 1.00, the “Primary efficacy outcome, RRR vs placebo” value (7.5 mg dose stratum) was 0% and the “Primary efficacy outcome, incidence” value (7.5 mg dose stratum, Up-to-Day 45, ITT) was 1.64%. The “Primary efficacy outcome, HR vs placebo” value (10 mg dose stratum) was 0.67, the “Primary efficacy outcome, RRR vs placebo” value (10 mg dose stratum) was 33% and the “Primary efficacy outcome, incidence” value (10 mg dose stratum, Up-to-Day 45, ITT) was 0.65%. For the same compound, the “Rehospitalization for symptomatic VTE within 30 days after randomization, HR vs placebo” value (ITT) was 0.50, the “Rehospitalization for symptomatic VTE within 30 days after randomization, incidence” value (ITT) was 0.15% and the “ACM, event rate” value (Up-to-Day 45, ITT) was 1.19 100 pt-45 dy. For the same compound, the “ACM, hazard ratio (95% CI) vs placebo” value (Up-to-Day 45, ITT) was 0.80 (0.58, 1.09), the “Composite of symptomatic VTE and ACM, RRR vs placebo” value (Up-to-Day 45, ITT) was 27% and the “Composite of symptomatic VTE and ACM, absolute difference vs placebo” value (Up-to-Day 45, ITT) was 0.48%. For the same compound, the “Composite of symptomatic VTE and ACM, event rate” value (Up-to-Day 45, ITT) was 1.31 100 pt-45 dy, the “Composite of symptomatic VTE and ACM, hazard ratio (95% CI) vs placebo” value (Up-to-Day 45, ITT) was 0.73 (0.54, 0.97) and the “Composite of symptomatic VTE and ACM, n/N (%)” value (Up-to-Day 45, ITT) was 78/6007 (1.30) %. For the same compound, the “Composite of symptomatic VTE, MI, non-hemorrhagic stroke and CV death, event rate” value (Up-to-Day 45, ITT) was 1.58 100 pt-45 dy, the “Composite of symptomatic VTE, MI, non-hemorrhagic stroke and CV death, hazard ratio (95% CI) vs placebo” value (Up-to-Day 45, ITT) was 0.78 (0.60, 1.02) and the “Composite of symptomatic VTE, MI, non-hemorrhagic stroke and CV death, n/N (%)” value (Up-to-Day 45, ITT) was 94/6007 (1.56) %. The “Death (PE cannot be ruled out), event rate” value (Up-to-Day 45, ITT) was 0.67 100 pt-45 dy, the “Death (PE cannot be ruled out), hazard ratio (95% CI) vs placebo” value (Up-to-Day 45, ITT) was 0.98 (0.63, 1.51) and the “Death (PE cannot be ruled out), n/N (%)” value (Up-to-Day 45, ITT) was 40/6007 (0.67) %. For the same compound, the “Death (PE), event rate” value (Up-to-Day 45, ITT) was 0.05 100 pt-45 dy, the “Death (PE), hazard ratio (95% CI) vs placebo” value (Up-to-Day 45, ITT) was 0.60 (0.14, 2.51) and the “Death (PE), n/N (%)” value (Up-to-Day 45, ITT) was 3/6007 (0.05) %. For the same compound, the “MI, HR vs placebo” value (Up-to-Day 45, ITT) was 1.36, the “MI, incidence” value (Up-to-Day 45, ITT) was 0.25% and the “Non-hemorrhagic stroke, HR vs placebo” value (Up-to-Day 45, ITT) was 0.63. For the same compound, the “Non-hemorrhagic stroke, incidence” value (Up-to-Day 45, ITT) was 0.32%, the “Primary efficacy outcome, absolute difference vs placebo” value (Up-to-Day 45, ITT) was 0.27% and the “Primary efficacy outcome, event rate” value (Up-to-Day 45, ITT) was 0.84 100 pt-45 dy. For the same compound, the “Primary efficacy outcome, hazard ratio (95% CI) vs placebo” value (Up-to-Day 45, ITT) was 0.76 (0.52, 1.09), the “Primary efficacy outcome, relative risk reduction vs placebo” value (Up-to-Day 45, ITT) was 24% and the “Symptomatic VTE (lower extremity DVT and non-fatal PE), n/N (%)” value (Up-to-Day 45, ITT) was 11/6007 (0.18) %. For the same compound, the “Symptomatic VTE, RRR vs placebo” value (Up-to-Day 45, ITT) was 56%, the “Symptomatic VTE, absolute difference vs placebo” value (Up-to-Day 45, ITT) was 0.24% and the “Symptomatic VTE, event rate” value (Up-to-Day 45, ITT) was 0.19 100 pt-45 dy. The “Symptomatic VTE, hazard ratio (95% CI) vs placebo” value (Up-to-Day 45, ITT) was 0.44 (0.22, 0.89), the “Symptomatic lower extremity DVT, RRR vs placebo” value (Up-to-Day 45, ITT) was 69% and the “Symptomatic lower extremity DVT, absolute difference vs placebo” value (Up-to-Day 45, ITT) was 0.15%. For the same compound, the “Symptomatic lower extremity DVT, event rate” value (Up-to-Day 45, ITT) was 0.07 100 pt-45 dy, the “Symptomatic lower extremity DVT, hazard ratio (95% CI) vs placebo” value (Up-to-Day 45, ITT) was 0.31 (0.10, 0.94) and the “Symptomatic lower extremity DVT, n/N (%)” value (Up-to-Day 45, ITT) was 4/6007 (0.07) %. For the same compound, the “Symptomatic non-fatal PE, event rate” value (Up-to-Day 45, ITT) was 0.12 100 pt-45 dy, the “Symptomatic non-fatal PE, hazard ratio (95% CI) vs placebo” value (Up-to-Day 45, ITT) was 0.47 (0.19, 1.14) and the “Symptomatic non-fatal PE, n/N (%)” value (Up-to-Day 45, ITT) was 7/6007 (0.12) %. For the same compound, the “Symptomatic upper extremity DVT, number (and incidence)” value (Up-to-Day 45, ITT) was “no subject”, the “VTE-related death, event rate” value (Up-to-Day 45, ITT) was 0.72 100 pt-45 dy and the “VTE-related death, hazard ratio (95% CI) vs placebo” value (Up-to-Day 45, ITT) was 0.93 (0.62, 1.42). For the same compound, the “VTE-related death, n/N (%)” value (Up-to-Day 45, ITT) was 43/6007 (0.72) %, the “Primary efficacy outcome (symptomatic VTE and VTE-related death), n/N (%)” value (Up-to-Day 45, ITT) was 50/6007 (0.83) % and the “Primary efficacy outcome (symptomatic VTE and VTE-related death), n/N (%)” value [1] was 0.83%. The “ACM, hazard ratio (95% CI) vs placebo” value [1] was 0.80, the “ACM, n/N (%)” value [1] was 1.18% and the “Composite of symptomatic VTE and ACM, hazard ratio (95% CI) vs placebo” value [1] was 0.73. The “Composite of symptomatic VTE and ACM, n/N (%)” value [1] was 1.30%, the “Composite of symptomatic VTE, MI, non-hemorrhagic stroke and CV death, hazard ratio (95% CI) vs placebo” value [1] was 0.78 and the “Composite of symptomatic VTE, MI, non-hemorrhagic stroke and CV death, n/N (%)” value [1] was 1.56%. For the same compound, the “Primary efficacy outcome, hazard ratio (95% CI) vs placebo” value [1] was 0.76, the “Symptomatic VTE (lower extremity DVT and non-fatal PE), n/N (%)” value [1] was 0.18% and the “Symptomatic VTE, hazard ratio (95% CI) vs placebo” value [1] was 0.44. The “Symptomatic lower extremity DVT, hazard ratio (95% CI) vs placebo” value [1] was 0.31, the “Symptomatic lower extremity DVT, n/N (%)” value [1] was 0.07% and the “Symptomatic non-fatal PE, hazard ratio (95% CI) vs placebo” value [1] was 0.47. The “Symptomatic non-fatal PE, n/N (%)” value [1] was 0.12%, the “VTE-related death, hazard ratio (95% CI) vs placebo” value [1] was 0.93 and the “VTE-related death, n/N (%)” value [1] was 0.72%. The “Primary efficacy outcome, HR vs placebo” value [2] was 0.40, the “Primary efficacy outcome, RRR vs placebo” value [2] was 60% and the “Primary efficacy outcome, absolute difference vs placebo” value [2] was 0.37%. For the same compound, the “Primary efficacy outcome, incidence” value (as reported by the investigator (post-hoc sensitivity analysis)) was 0.25%.
